The numbers were not newly measured in patent US8679507B2, “Testosterone olfaction” (priority 2012, dated 2014), which cites them from elsewhere.

This data set deals with human females. The settings on record: female college students, upper lip exposed; follicular phase.

In the case of `C[C@]12CC[C@@H](O)C[C@@H]1CC[C@@H]1[C@@H]2CC[C@]2(C)C=CC[C@@H]12` [androstenol], the “frequency of the LH pulse” value was “decreased”.
